Test results taken from US20250051277A1, “DELIVERY OF THERAPEUTIC ALKALOID COMPOUNDS” (Sensorium Therapeutics, Inc., priority 2021, published 2025).
Like-named read-outs stand apart in the source and are kept apart here.

Key:
[1] = Hydrolysis Assay of Example A1 (conversion by LCMS); type: physicochemical; settings: for Conversion (%) / Notes (hydrolysis): 0.5 mM, 0-24 h
Experimental: The hydrolysis kinetics was under a certain temperature and measured by LCMS at a certain time interval. The corresponding LCMS chromatograms were recorded and the conversions were calculated. The hydrolysis conditions and the data were summarized in below table. LCMS spectra were obtained using Agilent 1200/G1956A or SHIMADZU LCMS-2020. Standard LCMS conditions were as follows (running time 1.55 minutes): • Acidic condition: Mobile Phase A: 0.0375% TFA in water (v/v). Mobile Phase B: 0.01875% TFA in acetonitrile (v/v); Column: Kinetex EVO C18 30*2.1 mm, 5 μm. • Basic condition: Mobile Phase A: 0.025% NH3·H2O in water (v/v). Mobile Phase B: Acetonitrile; Column: Kinetex EVO C18 2.1×30 mm, 5 μm. • Conversion (%)=peak area 1/(peak area 1+peak area 2)*100%, peak area 1 is the integration of hydrolyzed product, peak area 2 is the integration of starting material.

[2] = Pharmacokinetics of 043 and 001 in mice after oral 043 (75 mg/kg); type: in vivo, male C57BL/6 mice; settings: analyte = label, single oral administration of 043, 75 mg/kg, male C57BL/6 mice
Experimental: Total twelve male mice were used in this study. […] The formulation vehicle used was normal saline.
The plasma and brain concentration-time data of 043 and 001 was used for the pharmacokinetic analysis.
The extraction procedure for plasma/brain samples and the spiked plasma/brain calibration standards were identical:
A 25 μL of study sample plasma/brain (dilution applied to some samples) or spiked plasma calibration standard was added to individual pre-labeled micro-centrifuge tubes followed by 100 μL of internal standard prepared in acetonitrile (Glipizide-500 ng/mL) was added except for blank, where 100 μL of acetonitrile was added. Samples were vortexed for 5 minutes. Samples were centrifuged for 10 minutes at a speed of 4000 rpm at 4° C. Following centrifugation, 100 μL of clear supernatant was transferred in 96 well plates and analyzed using LC-MS/MS.

[3] = Experimental: Male C57/BL6 mice were used to evaluate each compound, with n=3 mice/time point.
Animals were administered through intravenous route with solution formulation at 2 mg/kg dose. […] Following blood collection, immediately, animals were sacrificed, and vena-cava was cut open and blood was drained. […] Brain samples were collected from set of three mice at each time point. […] Brain samples were homogenized using 2 volumes of ice-cold PBS (pH-7.4) of brain weight. […] Concentrations of compound (or compound and metabolite) in mouse plasma and brain samples were determined by fit for purpose LC-MS/MS method.

[4] = Oral dose pharmacokinetic study in mice (10 mg/kg); type: in vivo, male C57BL/6 mice
Excerpt: The formulation vehicle used was normal saline.

[5] = for 001 brain levels quantifiable up to: rat
Experimental: Brain samples were homogenized with PBS (W/V, 1:3). Plasma/brain samples were mixed with acetonitrile containing internal standard. The samples were vortexed then centrifuged at 4 degrees Celsius for 15 minutes. The supernatant was diluted with water (1:2 V/V) and analyzed by LC/MS/MS for quantitative analysis. […] Area under the curve (AUC) was calculated and divided by dose to account for molecular weight difference of prodrug and metabolite (AUC/D).

[6] = Plasma Stability Assay of Example A4, rat plasma; settings: 37° C., 10 μM
[7] = Plasma Stability Assay of Example A3, mouse plasma; settings: 5 μM, 37° C., % of prodrug compound remaining
[8] = Plasma Stability Assay of Example A3, human plasma; settings: 5 μM, 37° C., % of prodrug compound remaining
[9] = Plasma Stability Assay of Example A4, human plasma; settings: 37° C., 10 μM
[10] = in vivo; cited from earlier work
[11] = 2 mg/kg iv of labelled compound, mice
[12] = 10 mg/kg po of labelled compound, mice

COc1ccc([C@@]23CCC(=O)C[C@@H]2N(C)CC3)cc1OC [Compound 001, mesembrine, reference compound]
hydrolysis in the Hydrolysis Assay ([1]; pH 2.0 in 0.01 M HCl to pH 7.4 in 20 mM PBS, 25° C. to 40° C.): did not further hydrolyze
Conversion (%) ([1]; pH = 2.0, 25° C., 0.01M HCl): 0%
Notes (hydrolysis) ([1]; pH = 2.0, 25° C., 0.01M HCl): Stable
Conversion (%) ([1]; pH = 2.0, 40° C., 0.01M HCl): 0%
Notes (hydrolysis) ([1]; pH = 2.0, 40° C., 0.01M HCl): Stable
Conversion (%) ([1]; pH = 7.4, 25° C., PBS (20 mM)): 0%
Notes (hydrolysis) ([1]; pH = 7.4, 25° C., PBS (20 mM)): Stable
Conversion (%) ([1]; pH = 7.4, 40° C., PBS (20 mM)): 0%
Notes (hydrolysis) ([1]; pH = 7.4, 40° C., PBS (20 mM)): Stable
Brain concentrations quantifiable up to [2]: 4 h
brain exposure-Kp [2]: 2.55
AUClast ([2]; brain): 498.04 ng·h/mL
Cmax ([2]; brain): 602.12 ng/mL
Tmax ([2]; brain): 30 min
AUClast ([2]; plasma): 195.38 ng·h/mL
Cmax ([2]; plasma): 230.83 ng/mL
Tmax ([2]; plasma): 30 min
quantifiable levels of 001 in brain up to [3, 11]: 60 min
quantifiable levels of 001 in plasma up to [3, 11]: 30 min
Plasma levels of 001 ([3]; at 60, 120, 180 min, 2 mg/kg iv of 001, mice): not detectable
Brain levels of 001 ([3]; at 120, 180 min, 2 mg/kg iv of 001, mice): not detectable
001 quantifiable in brain up to [4, 12]: 60 min
001 quantifiable in plasma up to [4, 12]: 2 h
Brain levels of 001 ([4]; at 90, 120, 180 min, 10 mg/kg po of 001, mice): not detectable
Plasma levels of 001 ([4]; at 180 min, 10 mg/kg po of 001, mice): not detectable
bioavailability (% F) ([4]; mice, oral 10 mg/kg): < 10%
001 brain levels quantifiable up to ([5]; 2 mg/kg iv of labelled compound): 2 h
Compound 001 (%) (metabolite mesembrine), Rat Plasma ([6]; time 0.0 min): 100.0%
Compound 001 (%) (metabolite mesembrine), Rat Plasma ([6]; time 10 min): >99%
Compound 001 (%) (metabolite mesembrine), Rat Plasma ([6]; time 30 min): >99%
Compound 001 (%) (metabolite mesembrine), Rat Plasma ([6]; time 60 min): 97.3%
Compound 001 (%) (metabolite mesembrine), Rat Plasma ([6]; time 120 min): >99%
Compound 001 (%) (metabolite mesembrine), Rat Plasma ([6]; time 240 min): 98.3%
Mouse Plasma Prodrug (%) ([7]; 0 min): 100.0%
Mouse Plasma Prodrug (%) ([7]; 15 min): >99%
Mouse Plasma Prodrug (%) ([7]; 30 min): 97.8%
Mouse Plasma Prodrug (%) ([7]; 60 min): >99%
Mouse Plasma Prodrug (%) ([7]; 120 min): >99%
Mouse Plasma Prodrug (%) ([7]; 240 min): >99%
Human Plasma Prodrug (%) ([8]; 0 min): 100.0%
Human Plasma Prodrug (%) ([8]; 15 min): >99%
Human Plasma Prodrug (%) ([8]; 30 min): >99%
Human Plasma Prodrug (%) ([8]; 60 min): >99%
Human Plasma Prodrug (%) ([8]; 120 min): >99%
Human Plasma Prodrug (%) ([8]; 240 min): >99%
Compound 001 (%) (metabolite mesembrine), Human Plasma ([9]; time 0.0 min): 100.0%
Compound 001 (%) (metabolite mesembrine), Human Plasma ([9]; time 10 min): >99%
Compound 001 (%) (metabolite mesembrine), Human Plasma ([9]; time 30 min): >99%
Compound 001 (%) (metabolite mesembrine), Human Plasma ([9]; time 60 min): >99%
Compound 001 (%) (metabolite mesembrine), Human Plasma ([9]; time 120 min): >99%
Compound 001 (%) (metabolite mesembrine), Human Plasma ([9]; time 240 min): >99%

CCC(C)CC(=O)OC1=C[C@@H]2N(C)CC[C@]2(c2ccc(OC)c(OC)c2)CC1 (stereo partly drawn) [Compound 316, [(3aS,7aS)-3a-(3,4-dimethoxyphenyl)-1-methyl-3,4,5,7a-tetrahydro-2H-indol-6-yl]3-methyl pentanoate]
conversion of prodrug to 001 in vivo ([5]; 2 mg/kg iv in rat): converts to 001 in vivo in rat
001 brain levels quantifiable up to ([5]; in vivo): 3 h

(−) mesembrine
half-life in plasma [10]: less than 2 hours
